According to patent publication US20210251963A1, “UREA DERIVATIVES FOR USE IN THE TREATMENT OF SUBJECTS WITH ELEVATED EXPRESSION AND/OR ACTIVITY OF SRPK1” (Scandion Oncology A/S, priority 2018, published 2021):

Key:
Experiment in all cases: Premier Screen kinase activity screening (33P ATP filter binding)
Type in all cases: biochemical
CK1γ2 = target: T1, CK1γ2 (Homo sapiens, UniProt P78368); settings: 10 μM SCO-101, mean of assay duplicates, read-out: Kinase activity (percentage of DMSO control)
T1 construct: purchased MRC Dundee, Premier Screen (contract screening service)
In short: (§1)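 Kinase activity was measured by radioactive filter binding with 33P-ATP, testing the compound at a single concentration of 10 μM. Values are the mean percentage activity of duplicate assays, with standard deviation, relative to DMSO controls.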

PIM1 = target: T2, PIM1 (Homo sapiens, UniProt P11309); settings: 10 μM SCO-101, mean of assay duplicates, read-out: Kinase activity (percentage of DMSO control)
T2 construct: purchased MRC in Dundee (Premier Screen service)
In short: as §1

TAK1 = target: T3, TAK1 (Homo sapiens, UniProt O43318); settings: 10 μM SCO-101, mean of assay duplicates, read-out: Kinase activity (percentage of DMSO control)
T3 construct: purchased MRC Dundee, Premier Screen (contract screening service)
In short: as §1

PRK2 = PRK2 (Homo sapiens, UniProt Q16513); settings: 10 μM SCO-101, mean of assay duplicates, read-out: Kinase activity (percentage of DMSO control)
In short: as §1

PKD1 = PKD1 (Homo sapiens, UniProt Q15139); settings: 10 μM SCO-101, mean of assay duplicates, read-out: Kinase activity (percentage of DMSO control)
In short: as §1

NUAK1 = target: T4, NUAK1 (Homo sapiens, UniProt O60285); settings: 10 μM SCO-101, mean of assay duplicates, read-out: Kinase activity (percentage of DMSO control)
T4 construct: purchased MRC in Dundee (Premier Screen service)
In short: as §1

BRK = target: T5, BRK (Homo sapiens, UniProt Q13882); settings: 10 μM SCO-101, mean of assay duplicates, read-out: Kinase activity (percentage of DMSO control)
T5 construct: MRC in Dundee (screening service)
In short: as §1

CK2 = target: T6, CK2 (Homo sapiens, UniProt P68400); settings: 10 μM SCO-101, mean of assay duplicates, read-out: Kinase activity (percentage of DMSO control)
T6 construct: purchased MRC Dundee, Premier Screen (contract screening service)
In short: as §1

RSK1 = target: T7, RSK1 (Homo sapiens, UniProt Q15418); settings: 10 μM SCO-101, mean of assay duplicates, read-out: Kinase activity (percentage of DMSO control)
T7 construct: MRC Dundee (screening service)
In short: as §1

DYRK1A = target: T8, DYRK1A (Homo sapiens, UniProt Q13627); settings: 10 μM SCO-101, mean of assay duplicates, read-out: Kinase activity (percentage of DMSO control)
T8 construct: purchased MRC Dundee, Premier Screen (contract screening service)
In short: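 Reported numbers are percent remaining kinase activity versus DMSO control (mean of duplicates, ± SD). They come from a radioactive 33P-ATP filter-binding assay run with 10 μM compound.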

SIK3 = target: T9, SIK3 (Homo sapiens, UniProt Q9Y2K2); settings: 10 μM SCO-101, mean of assay duplicates, read-out: Kinase activity (percentage of DMSO control)
T9 construct: purchased MRC in Dundee (Premier Screen service)
In short: as §1

CDK9-Cyclin T1 = target: T10, CDK9-Cyclin T1 (Homo sapiens, UniProt P50750); settings: 10 μM SCO-101, mean of assay duplicates, read-out: Kinase activity (percentage of DMSO control)
T10 construct: purchased MRC Dundee, Premier Screen (contract screening service)
In short: as §1

Lck = target: T11, Lck (Homo sapiens, UniProt P06239); settings: 10 μM SCO-101, mean of assay duplicates, read-out: Kinase activity (percentage of DMSO control)
T11 construct: purchased MRC Dundee, Premier Screen (contract screening service)
In short: as §1

OSR1 = target: T12, OSR1 (Homo sapiens, UniProt O95747); settings: 10 μM SCO-101, mean of assay duplicates, read-out: Kinase activity (percentage of DMSO control)
T12 construct: MRC in Dundee (screening service)
In short: as §1

PAK2 = target: T13, PAK2 (Homo sapiens, UniProt Q13177); settings: 10 μM SCO-101, mean of assay duplicates, read-out: Kinase activity (percentage of DMSO control)
T13 construct: MRC in Dundee (screening service)
In short: as §1

TAO1 = settings: 10 μM SCO-101, mean of assay duplicates
In short: as §1

PDGFRA = target: T14, PDGFRA (Homo sapiens, UniProt P16234); settings: 10 μM SCO-101, mean of assay duplicates, read-out: Kinase activity (percentage of DMSO control)
T14 construct: purchased MRC in Dundee (Premier Screen service)
In short: as §1

p38b MAPK = p38b MAPK (Homo sapiens, UniProt Q15759); settings: 10 μM SCO-101, mean of assay duplicates, read-out: Kinase activity (percentage of DMSO control)
In short: as §1

JNK3 = target: T15, JNK3 (Homo sapiens, UniProt P53779); settings: 10 μM SCO-101, mean of assay duplicates, read-out: Kinase activity (percentage of DMSO control)
T15 construct: purchased MRC Dundee, Premier Screen (contract screening service)
In short: as §1

IGF-1R = target: T16, IGF-1R (Homo sapiens, UniProt P08069); settings: 10 μM SCO-101, mean of assay duplicates, read-out: Kinase activity (percentage of DMSO control)
T16 construct: purchased MRC in Dundee (Premier Screen service)
In short: as §1

MAPKAP-K3 = target: T17, MAPKAP-K3 (Homo sapiens, UniProt Q16644); settings: 10 μM SCO-101, mean of assay duplicates, read-out: Kinase activity (percentage of DMSO control)
T17 construct: MRC in Dundee (screening service)
In short: as §1

ERK5 = target: T18, ERK5 (Homo sapiens, UniProt Q13164); settings: 10 μM SCO-101, mean of assay duplicates, read-out: Kinase activity (percentage of DMSO control)
T18 construct: MRC in Dundee (screening service)
In short: as §1

PHK = settings: 10 μM SCO-101, mean of assay duplicates
In short: as §1

MST2 = target: T19, MST2 (Homo sapiens, UniProt Q13188); settings: 10 μM SCO-101, mean of assay duplicates, read-out: Kinase activity (percentage of DMSO control)
T19 construct: purchased MRC in Dundee (Premier Screen service)
In short: as §1

EPH-A4 = target: T20, EPH-A4 (Homo sapiens, UniProt P54764); settings: 10 μM SCO-101, mean of assay duplicates, read-out: Kinase activity (percentage of DMSO control)
T20 construct: MRC Dundee (screening service)
In short: as §1

MINK1 = target: T21, MINK1 (Homo sapiens, UniProt Q8N4C8); settings: 10 μM SCO-101, mean of assay duplicates, read-out: Kinase activity (percentage of DMSO control)
T21 construct: purchased MRC in Dundee (Premier Screen service)
In short: as §1

GCK = target: T22, GCK (Homo sapiens, UniProt Q12851); settings: 10 μM SCO-101, mean of assay duplicates, read-out: Kinase activity (percentage of DMSO control)
T22 construct: MRC in Dundee (screening service)
In short: as §1

RIPK2 = RIPK2 (Homo sapiens, UniProt O43353); settings: 10 μM SCO-101, mean of assay duplicates, read-out: Kinase activity (percentage of DMSO control)
In short: as §1

PRAK = target: T23, PRAK (Homo sapiens, UniProt Q8IW41); settings: 10 μM SCO-101, mean of assay duplicates, read-out: Kinase activity (percentage of DMSO control)
T23 construct: purchased MRC in Dundee (Premier Screen service)
In short: as §1

TBK1 = target: T24, TBK1 (Homo sapiens, UniProt Q9UHD2); settings: 10 μM SCO-101, mean of assay duplicates, read-out: Kinase activity (percentage of DMSO control)
T24 construct: purchased MRC in Dundee (Premier Screen service)
In short: as §1

MARK4 = target: T25, MARK4 (Homo sapiens, UniProt Q96L34); settings: 10 μM SCO-101, mean of assay duplicates, read-out: Kinase activity (percentage of DMSO control)
T25 construct: MRC in Dundee (screening service)
In short: as §1

TGFBR1 = target: T26, TGFBR1 (Homo sapiens, UniProt P36897); settings: 10 μM SCO-101, mean of assay duplicates, read-out: Kinase activity (percentage of DMSO control)
T26 construct: purchased MRC Dundee, Premier Screen (contract screening service)
In short: as §1

CK1δ = target: T27, CK1δ (Homo sapiens, UniProt P48730); settings: 10 μM SCO-101, mean of assay duplicates, read-out: Kinase activity (percentage of DMSO control)
T27 construct: purchased MRC Dundee, Premier Screen (contract screening service)
In short: as §1

ASK1 = target: T28, ASK1 (Homo sapiens, UniProt Q99683); settings: 10 μM SCO-101, mean of assay duplicates, read-out: Kinase activity (percentage of DMSO control)
T28 construct: purchased MRC in Dundee (Premier Screen service)
In short: as §1

Src = target: T29, Src (Homo sapiens, UniProt P12931); settings: 10 μM SCO-101, mean of assay duplicates, read-out: Kinase activity (percentage of DMSO control)
T29 construct: purchased MRC Dundee, Premier Screen (contract screening service)
In short: as §1

MST4 = MST4 (Homo sapiens, UniProt Q9P289); settings: 10 μM SCO-101, mean of assay duplicates, read-out: Kinase activity (percentage of DMSO control)
In short: as §1

T24 sequence (Q9UHD2 whole entry, species assumed): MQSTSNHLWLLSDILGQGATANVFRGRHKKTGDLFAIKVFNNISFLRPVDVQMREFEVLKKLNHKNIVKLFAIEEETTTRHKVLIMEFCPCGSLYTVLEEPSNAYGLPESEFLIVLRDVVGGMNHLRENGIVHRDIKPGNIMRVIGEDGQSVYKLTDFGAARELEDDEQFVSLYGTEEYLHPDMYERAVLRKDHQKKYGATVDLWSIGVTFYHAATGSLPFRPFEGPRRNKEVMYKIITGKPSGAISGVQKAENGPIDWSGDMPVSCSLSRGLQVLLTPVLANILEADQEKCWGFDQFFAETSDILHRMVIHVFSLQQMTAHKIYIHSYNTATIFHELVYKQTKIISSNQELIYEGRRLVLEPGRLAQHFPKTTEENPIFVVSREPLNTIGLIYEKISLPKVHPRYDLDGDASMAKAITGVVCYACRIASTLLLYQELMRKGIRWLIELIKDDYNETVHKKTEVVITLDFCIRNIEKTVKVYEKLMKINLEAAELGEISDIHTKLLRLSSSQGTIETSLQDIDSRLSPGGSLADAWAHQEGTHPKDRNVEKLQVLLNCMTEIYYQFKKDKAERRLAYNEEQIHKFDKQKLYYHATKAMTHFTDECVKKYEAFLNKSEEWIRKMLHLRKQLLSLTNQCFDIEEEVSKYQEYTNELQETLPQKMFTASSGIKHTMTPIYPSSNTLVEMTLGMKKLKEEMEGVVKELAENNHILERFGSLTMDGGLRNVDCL
T23 sequence (Q8IW41 whole entry, species assumed): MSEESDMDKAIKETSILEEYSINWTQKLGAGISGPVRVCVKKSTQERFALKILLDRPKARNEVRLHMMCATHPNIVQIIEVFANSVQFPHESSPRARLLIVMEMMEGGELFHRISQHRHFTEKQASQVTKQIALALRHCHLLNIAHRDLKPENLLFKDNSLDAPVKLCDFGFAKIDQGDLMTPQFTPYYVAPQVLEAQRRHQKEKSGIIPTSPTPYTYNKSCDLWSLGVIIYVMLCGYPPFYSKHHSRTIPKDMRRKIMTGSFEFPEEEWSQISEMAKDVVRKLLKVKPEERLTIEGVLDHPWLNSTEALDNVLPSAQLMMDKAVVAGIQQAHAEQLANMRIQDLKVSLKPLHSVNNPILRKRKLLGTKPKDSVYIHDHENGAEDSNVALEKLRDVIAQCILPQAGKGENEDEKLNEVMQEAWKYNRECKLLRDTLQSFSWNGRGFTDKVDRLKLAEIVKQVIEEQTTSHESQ
Chain of RIPK2 (O43353 whole entry, species assumed): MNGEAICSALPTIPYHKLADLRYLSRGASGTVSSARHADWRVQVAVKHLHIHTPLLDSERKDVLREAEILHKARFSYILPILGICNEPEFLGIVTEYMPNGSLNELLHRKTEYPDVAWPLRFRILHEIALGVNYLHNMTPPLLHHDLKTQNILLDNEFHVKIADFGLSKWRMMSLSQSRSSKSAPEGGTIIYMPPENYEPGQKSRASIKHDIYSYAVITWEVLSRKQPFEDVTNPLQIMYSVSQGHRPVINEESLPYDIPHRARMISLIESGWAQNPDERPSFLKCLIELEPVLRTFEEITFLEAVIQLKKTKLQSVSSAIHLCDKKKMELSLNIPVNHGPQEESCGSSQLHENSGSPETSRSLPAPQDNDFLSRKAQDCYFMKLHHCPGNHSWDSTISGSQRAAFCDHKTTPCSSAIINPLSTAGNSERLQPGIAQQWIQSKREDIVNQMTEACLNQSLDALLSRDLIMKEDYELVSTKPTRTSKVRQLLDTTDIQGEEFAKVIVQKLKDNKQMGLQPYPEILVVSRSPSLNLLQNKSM
T14 sequence (P16234 24-1089, species assumed): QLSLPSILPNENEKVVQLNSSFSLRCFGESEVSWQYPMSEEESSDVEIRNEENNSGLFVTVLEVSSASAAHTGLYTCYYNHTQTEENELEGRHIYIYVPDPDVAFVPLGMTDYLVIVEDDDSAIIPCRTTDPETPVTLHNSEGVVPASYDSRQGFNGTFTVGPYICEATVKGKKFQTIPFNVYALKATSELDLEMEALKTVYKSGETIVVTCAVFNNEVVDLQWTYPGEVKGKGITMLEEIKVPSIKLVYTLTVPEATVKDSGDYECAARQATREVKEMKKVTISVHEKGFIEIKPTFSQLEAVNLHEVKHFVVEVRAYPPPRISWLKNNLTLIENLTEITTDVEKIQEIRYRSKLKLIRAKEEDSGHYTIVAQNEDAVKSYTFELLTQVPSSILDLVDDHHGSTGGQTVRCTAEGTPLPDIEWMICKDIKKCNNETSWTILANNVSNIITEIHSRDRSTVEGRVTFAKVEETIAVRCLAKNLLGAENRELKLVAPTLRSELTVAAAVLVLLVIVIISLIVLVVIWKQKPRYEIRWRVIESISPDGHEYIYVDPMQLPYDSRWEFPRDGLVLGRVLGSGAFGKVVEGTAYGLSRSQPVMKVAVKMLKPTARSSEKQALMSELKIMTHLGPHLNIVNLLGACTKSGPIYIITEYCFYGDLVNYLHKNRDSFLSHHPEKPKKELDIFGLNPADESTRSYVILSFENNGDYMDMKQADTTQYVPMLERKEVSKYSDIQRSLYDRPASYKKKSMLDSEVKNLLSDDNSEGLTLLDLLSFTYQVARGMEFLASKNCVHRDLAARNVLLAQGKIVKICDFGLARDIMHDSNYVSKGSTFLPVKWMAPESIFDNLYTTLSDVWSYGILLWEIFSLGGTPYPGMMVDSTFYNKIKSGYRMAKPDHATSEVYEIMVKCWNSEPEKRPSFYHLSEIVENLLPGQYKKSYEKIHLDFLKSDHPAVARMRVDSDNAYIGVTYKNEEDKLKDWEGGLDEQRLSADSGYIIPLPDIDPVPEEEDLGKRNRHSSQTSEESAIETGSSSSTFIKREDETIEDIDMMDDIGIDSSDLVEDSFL
Chain of PKD1 (Q15139 whole entry): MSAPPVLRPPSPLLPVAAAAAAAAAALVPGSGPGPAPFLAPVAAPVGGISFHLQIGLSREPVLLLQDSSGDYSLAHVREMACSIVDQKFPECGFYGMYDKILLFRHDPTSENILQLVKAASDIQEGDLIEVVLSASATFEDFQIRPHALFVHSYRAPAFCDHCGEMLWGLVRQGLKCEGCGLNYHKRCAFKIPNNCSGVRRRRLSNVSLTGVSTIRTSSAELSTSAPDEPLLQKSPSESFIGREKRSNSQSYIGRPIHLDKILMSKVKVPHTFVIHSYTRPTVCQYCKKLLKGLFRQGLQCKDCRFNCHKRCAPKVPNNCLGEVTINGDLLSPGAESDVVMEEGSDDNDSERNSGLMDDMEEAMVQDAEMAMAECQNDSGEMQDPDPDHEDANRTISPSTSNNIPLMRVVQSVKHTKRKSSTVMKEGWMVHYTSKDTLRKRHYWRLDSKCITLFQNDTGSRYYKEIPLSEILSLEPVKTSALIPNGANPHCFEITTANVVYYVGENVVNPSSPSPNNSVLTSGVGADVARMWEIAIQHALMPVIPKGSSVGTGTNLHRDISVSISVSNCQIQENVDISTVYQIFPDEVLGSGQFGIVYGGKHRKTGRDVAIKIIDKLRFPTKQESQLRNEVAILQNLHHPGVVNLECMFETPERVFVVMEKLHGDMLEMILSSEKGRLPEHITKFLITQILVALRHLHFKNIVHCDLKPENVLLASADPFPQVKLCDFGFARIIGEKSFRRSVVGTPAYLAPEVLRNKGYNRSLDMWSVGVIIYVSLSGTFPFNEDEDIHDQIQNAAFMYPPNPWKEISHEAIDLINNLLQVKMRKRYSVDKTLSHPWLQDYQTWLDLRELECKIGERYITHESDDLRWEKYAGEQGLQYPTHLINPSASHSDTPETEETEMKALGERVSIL
T21 sequence (Q8N4C8 whole entry, species assumed): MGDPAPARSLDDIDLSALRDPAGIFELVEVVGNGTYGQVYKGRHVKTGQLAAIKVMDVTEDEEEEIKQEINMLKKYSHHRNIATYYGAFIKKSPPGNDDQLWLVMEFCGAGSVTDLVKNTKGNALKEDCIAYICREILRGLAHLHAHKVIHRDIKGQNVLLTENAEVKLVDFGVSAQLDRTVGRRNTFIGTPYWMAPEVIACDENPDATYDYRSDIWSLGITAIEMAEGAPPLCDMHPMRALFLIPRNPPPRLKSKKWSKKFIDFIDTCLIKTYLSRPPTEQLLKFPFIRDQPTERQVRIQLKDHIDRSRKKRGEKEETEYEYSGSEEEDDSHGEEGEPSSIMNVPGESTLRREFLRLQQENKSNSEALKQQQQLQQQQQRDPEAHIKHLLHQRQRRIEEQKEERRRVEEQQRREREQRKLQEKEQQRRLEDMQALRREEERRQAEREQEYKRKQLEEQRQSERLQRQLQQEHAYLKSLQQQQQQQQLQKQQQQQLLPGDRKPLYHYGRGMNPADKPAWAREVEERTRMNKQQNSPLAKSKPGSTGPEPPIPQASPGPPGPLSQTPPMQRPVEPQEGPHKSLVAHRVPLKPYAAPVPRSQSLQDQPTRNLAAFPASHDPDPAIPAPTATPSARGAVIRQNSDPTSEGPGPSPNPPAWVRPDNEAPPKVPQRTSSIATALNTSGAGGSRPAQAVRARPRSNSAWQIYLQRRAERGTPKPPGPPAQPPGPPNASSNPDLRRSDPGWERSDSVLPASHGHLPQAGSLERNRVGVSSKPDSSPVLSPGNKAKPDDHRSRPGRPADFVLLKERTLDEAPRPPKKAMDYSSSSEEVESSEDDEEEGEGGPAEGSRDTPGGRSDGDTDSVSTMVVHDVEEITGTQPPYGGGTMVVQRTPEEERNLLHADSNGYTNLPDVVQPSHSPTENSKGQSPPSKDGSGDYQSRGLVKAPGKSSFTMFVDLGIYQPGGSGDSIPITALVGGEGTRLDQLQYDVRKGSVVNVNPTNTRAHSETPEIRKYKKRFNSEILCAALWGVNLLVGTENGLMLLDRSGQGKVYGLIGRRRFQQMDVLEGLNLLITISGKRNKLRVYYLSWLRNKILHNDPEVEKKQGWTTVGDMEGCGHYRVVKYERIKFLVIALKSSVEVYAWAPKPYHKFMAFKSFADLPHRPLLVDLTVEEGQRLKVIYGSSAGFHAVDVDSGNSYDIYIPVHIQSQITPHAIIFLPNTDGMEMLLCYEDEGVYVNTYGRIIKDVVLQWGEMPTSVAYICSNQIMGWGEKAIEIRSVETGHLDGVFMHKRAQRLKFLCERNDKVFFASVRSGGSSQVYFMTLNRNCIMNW

## O=C(Nc1cc(C(F)(F)F)cc(C(F)(F)F)c1)Nc1ccc(Br)cc1-c1nnn[nH]1 [SCO-101]
CK1γ2
  remaining activity at 10 µM: 109%
PIM1
  remaining activity at 10 µM: 61%
TAK1
  remaining activity at 10 µM: 107%
PRK2
  remaining activity at 10 µM: 120%
PKD1
  remaining activity at 10 µM: 122%
NUAK1
  remaining activity at 10 µM: 49%
BRK
  remaining activity at 10 µM: 94%
CK2
  remaining activity at 10 µM: 107%
RSK1
  remaining activity at 10 µM: 100%
DYRK1A
  remaining activity at 10 µM: 112%
SIK3
  remaining activity at 10 µM: 39%
CDK9-Cyclin T1
  remaining activity at 10 µM: 104%
Lck
  remaining activity at 10 µM: 103%
OSR1
  remaining activity at 10 µM: 94%
PAK2
  remaining activity at 10 µM: 83%
TAO1
  Kinase activity (percentage of DMSO control): 116 percentage of DMSO control
PDGFRA
  remaining activity at 10 µM: 62%
p38b MAPK
  remaining activity at 10 µM: 115%
JNK3
  remaining activity at 10 µM: 112%
IGF-1R
  remaining activity at 10 µM: 128%
MAPKAP-K3
  remaining activity at 10 µM: 85%
ERK5
  remaining activity at 10 µM: 90%
PHK
  Kinase activity (percentage of DMSO control): 88 percentage of DMSO control
MST2
  remaining activity at 10 µM: 146%
EPH-A4
  remaining activity at 10 µM: 101%
MINK1
  remaining activity at 10 µM: 173%
GCK
  remaining activity at 10 µM: 92%
RIPK2
  remaining activity at 10 µM: 121%
PRAK
  remaining activity at 10 µM: 69%
TBK1
  remaining activity at 10 µM: 126%
MARK4
  remaining activity at 10 µM: 90%
TGFBR1
  remaining activity at 10 µM: 111%
CK1δ
  remaining activity at 10 µM: 107%
ASK1
  remaining activity at 10 µM: 136%
Src
  remaining activity at 10 µM: 105%
MST4
  remaining activity at 10 µM: 117%
